# Reference: US11998017B2, “Bio-pesticide for Japanese beetles” (priority 2022, dated 2024)
# Tested on: Japanese beetle
# Test: neurological response / paralysis of Japanese beetle after consuming or absorbing quisqualic acid
# Type: in vivo, Popillia Japonica
# Description: The pesticide composition according to one or more embodiments described herein makes use of a phenomenon that is unique to the Japanese beetle. A primary active ingredient of the pesticide is the amino acid quisqualic acid, which elicits a unique neurological response specifically from the Japanese beetle. Quisqualic acid is naturally occurring in the Pelargonium and Quisqualic indica species of plants. As part of this disclosure, it was discovered that ingestion of the plants' essential oil is not required, but that the absorption of the plants' essential oil through contact by the Japanese beetle, can provoke a sufficient neurological response from the beetle, followed by 24-hour paralysis of the Japanese beetle. That is, the Japanese beetle need not consume the composition according to one or more embodiments herein. The composition is an effective pesticide through contact only by the Japanese beetle.
# Japanese beetles that do land on the leaves, become saturated with the oil and absorb the paralysis-inducing quisqualic acid. Japanese beetles that do feed on the foliage may then also consume the quisqualic acid. […]
structure (smiles),measurement,setting,value
N[C@@H](Cn1oc(=O)[nH]c1=O)C(=O)O [quisqualic acid],duration of paralytic state,after consumption or absorption through contact,24 h
same,time until beetles fall into paralytic state,beetles that consume or absorb the quisqualic acid,4 to 6 h
